Data as given in ChEMBL document CHEMBL4665770, “Design and Discovery of Natural Cyclopeptide Skeleton Based Programmed Death Ligand 1 Inhibitor as Immune Modulator for Cancer Therapy” (J Med Chem, 2020).
Square brackets hold non-standard residues; d marks the D form. Peptide text beside a SMILES is read from it.

Assays:
[1] = molecular target: Programmed cell death protein 1/Programmed cell death 1 ligand 1 (Homo sapiens, UniProt Q9NZQ7); assay: Inhibition of PD1-Tag2/PD-L1-Tag1 (unknown origin) protein-protein interaction preincubated for 15 mins followed by addition of anti-Tag1-Eu3+ and anti-Tag2-XL665 measured after 3 hrs by HTRF assay; assay type: protein-complex assay
Sequence of Programmed cell death protein 1/Programmed cell death 1 ligand 1 (Q15116 whole entry): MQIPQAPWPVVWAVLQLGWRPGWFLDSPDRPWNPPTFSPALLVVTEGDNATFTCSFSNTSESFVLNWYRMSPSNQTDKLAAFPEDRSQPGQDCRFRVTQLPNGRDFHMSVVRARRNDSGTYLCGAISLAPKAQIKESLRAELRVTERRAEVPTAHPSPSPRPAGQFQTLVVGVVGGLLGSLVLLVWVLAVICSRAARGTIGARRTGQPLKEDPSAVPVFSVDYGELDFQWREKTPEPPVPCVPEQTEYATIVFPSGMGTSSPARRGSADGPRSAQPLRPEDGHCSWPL
Sequence of Programmed cell death protein 1/Programmed cell death 1 ligand 1 (Q9NZQ7 whole entry): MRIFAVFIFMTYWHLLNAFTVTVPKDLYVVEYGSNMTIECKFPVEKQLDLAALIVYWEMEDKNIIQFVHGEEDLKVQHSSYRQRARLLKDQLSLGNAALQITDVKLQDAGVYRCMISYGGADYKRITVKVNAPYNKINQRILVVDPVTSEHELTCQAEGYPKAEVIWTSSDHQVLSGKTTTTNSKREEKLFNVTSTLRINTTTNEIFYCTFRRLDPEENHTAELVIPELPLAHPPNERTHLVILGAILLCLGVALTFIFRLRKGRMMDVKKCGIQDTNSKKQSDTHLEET

[2] = molecular target: Programmed cell death protein 1/Programmed cell death 1 ligand 1 (Homo sapiens) (UniProt Q15116+Q9NZQ7); assay: Inhibition of PD1-Tag2/PD-L1-Tag1 (unknown origin) protein-protein interaction at 20 uM preincubated for 15 mins followed by addition of anti-Tag1-Eu3+ and anti-Tag2-XL665 measured after 3 hrs by HTRF assay relative to control; assay type: protein-complex assay; details: time 195.0 min

| Compound | IC50 [1] | inhibition [2] |
| --- | --- | --- |
| CCCC[C@@H]1NC(=O)[C@H](CC(=O)O)NC(=O)[C@H]([C@@H](C)O)NC(=O)[C@@H]2CCCN2C(=O)[C@@H](Cc2c[nH]c3ccccc23)NC(=O)[C@H](CC(C)C)NC(=O)[C@H](CCCNC(=N)N)NC(=O)[C@H](C(C)C)NC(=O)[C@@H]2CCCN2C(=O)[C@@H](Cc2ccccc2)NC1=O | 5.02 µM | 82.1% |
| CC(C)C[C@@H]1NC(=O)[C@H](CCCNC(=N)N)NC(=O)[C@H](C(C)C)NC(=O)[C@H](CC(C)C)NC(=O)[C@@H](Cc2ccccc2)NC(=O)[C@H](C)NC(=O)[C@H](CCCNC(=N)N)NC(=O)[C@H](C(C)C)NC(=O)[C@@H]2CCCN2C(=O)[C@@H](Cc2ccccc2)NC1=O (cyclo(A[dF]LVRL[dF]PVR)) | – | 11.2% |
| CC(C)C[C@@H]1NC(=O)[C@H](CC(=O)O)NC(=O)[C@H]([C@@H](C)O)NC(=O)[C@@H]2CCCN2C(=O)[C@@H](Cc2ccccc2)NC(=O)[C@H](CC(N)=O)NC(=O)[C@H](CCCNC(=N)N)NC(=O)[C@H](C(C)C)NC(=O)[C@@H]2CCCN2C(=O)[C@@H](Cc2ccccc2)NC1=O (cyclo(DL[dF]PVRN[dF]PT)) | – | 17.4% |
| CC(C)C[C@@H]1NC(=O)[C@H](CC(=O)O)NC(=O)[C@H](C(C)C)NC(=O)[C@@H]2CCCN2C(=O)[C@@H](Cc2ccccc2)NC(=O)[C@H](CC(C)C)NC(=O)[C@H](CCCNC(=N)N)NC(=O)[C@H](C(C)C)NC(=O)[C@@H]2CCCN2C(=O)[C@@H](Cc2ccccc2)NC1=O | 9.63 µM | 57.3% |
| CC(C)C[C@@H]1NC(=O)[C@H](CCCNC(=N)N)NC(=O)[C@H](C(C)C)NC(=O)[C@@H]2CCCN2C(=O)[C@@H](Cc2ccccc2)NC(=O)[C@H](C)NC(=O)[C@H](CCCNC(=N)N)NC(=O)[C@H](C)NC(=O)[C@@H]2CCCN2C(=O)[C@@H](Cc2ccccc2)NC1=O (cyclo(ARA[dF]PVRL[dF]P)) | – | 43.6% |
| CC(NCCCC[C@@H]1NC(=O)[C@@H]2CCCN2C(=O)[C@@H](Cc2ccccc2)NC(=O)[C@H](CC(C)C)NC(=O)[C@H](CC(=O)O)NC(=O)[C@H]([C@@H](C)O)NC(=O)[C@@H]2CCCN2C(=O)[C@@H](Cc2c[nH]c3ccccc23)NC(=O)[C@H](CC(C)C)NC(=O)[C@H](CCCNC(=N)N)NC1=O)=C1C(=O)CC(C)(C)CC1=O | – | 13.1% |
| CCCC[C@@H]1NC(=O)[C@H](CC(=O)O)NC(=O)[C@H]([C@@H](C)O)NC(=O)[C@@H]2CCCN2C(=O)[C@@H](Cc2c[nH]c3ccccc23)NC(=O)[C@H](CC(C)C)NC(=O)[C@H](CCCNC(=N)N)NC(=O)[C@H](C(C)C)NC(=O)[C@H](CCCCNC(C)=C2C(=O)CC(C)(C)CC2=O)NC(=O)[C@@H](Cc2ccccc2)NC1=O | – | -2.81% |
| CC(C)C[C@@H]1NC(=O)[C@H](C)NC(=O)[C@H](C(C)C)NC(=O)[C@@H]2CCCN2C(=O)[C@@H](Cc2ccccc2)NC(=O)[C@H](CC(C)C)NC(=O)[C@H](CCCNC(=N)N)NC(=O)[C@H](C(C)C)NC(=O)[C@@H]2CCCN2C(=O)[C@@H](Cc2ccccc2)NC1=O (cyclo(AL[dF]PVRL[dF]PV)) | – | 28.8% |
| CC[C@H](C)[C@@H]1NC(=O)[C@@H]2CCCN2C(=O)[C@@H](Cc2ccccc2)NC(=O)[C@H](CC(C)C)NC(=O)[C@H](CC(=O)O)NC(=O)[C@H]([C@@H](C)O)NC(=O)[C@@H]2CCCN2C(=O)[C@@H](Cc2c[nH]c3ccccc23)NC(=O)[C@H](CC(C)C)NC(=O)[C@H](CCCNC(=N)N)NC1=O (cyclo(DL[dF]PIRL[dW]PT)) | – | 33.3% |
| CC(C)C[C@@H]1NC(=O)[C@H](CC(=O)O)NC(=O)[C@H](CCCNC(=N)N)NC(=O)[C@H](C(C)C)NC(=O)[C@@H]2CCCN2C(=O)[C@@H](Cc2ccccc2)NC(=O)[C@H](CC(C)C)NC(=O)[C@H]([C@@H](C)O)NC(=O)[C@@H]2CCCN2C(=O)[C@@H](Cc2ccccc2)NC1=O (cyclo(DL[dF]PTL[dF]PVR)) | – | -7.34% |
| CC(C)C[C@@H]1NC(=O)[C@H](CCCNC(=N)N)NC(=O)[C@H](C(C)C)NC(=O)[C@@H]2CCCN2C(=O)[C@@H](Cc2ccccc2)NC(=O)[C@H](C)NC(=O)[C@H](CC(=O)O)NC(=O)[C@H](C)NC(=O)[C@@H]2CCCN2C(=O)[C@@H](Cc2ccccc2)NC1=O | 27.5 µM | 51.9% |
| CC(NCCCC[C@@H]1NC(=O)[C@@H](Cc2ccccc2)NC(=O)[C@H](CC(C)C)NC(=O)[C@H](CC(=O)O)NC(=O)[C@H]([C@@H](C)O)NC(=O)[C@@H]2CCCN2C(=O)[C@@H](Cc2c[nH]c3ccccc23)NC(=O)[C@H](CC(C)C)NC(=O)[C@H](CCCNC(=N)N)NC(=O)[C@H](C(C)C)N(C)C1=O)=C1C(=O)CC(C)(C)CC1=O | – | 29.1% |
| CC(C)C[C@@H]1NC(=O)[C@H](CCCNC(=N)N)NC(=O)[C@H](C)NC(=O)[C@@H]2CCCN2C(=O)[C@@H](Cc2ccccc2)NC(=O)[C@H](C)NC(=O)[C@H](CCCNC(=N)N)NC(=O)[C@H](C(C)C)NC(=O)[C@@H]2CCCN2C(=O)[C@@H](Cc2ccccc2)NC1=O (cyclo(ARL[dF]PVRA[dF]P)) | – | 6.3% |
| CC(C)C[C@@H]1NC(=O)[C@H](CC(=O)O)NC(=O)[C@H](C(C)C)NC(=O)[C@@H]2CCCN2C(=O)[C@@H](Cc2ccccc2)NC(=O)[C@H](C)NC(=O)[C@H](CCCNC(=N)N)NC(=O)[C@H](C)NC(=O)[C@@H]2CCCN2C(=O)[C@@H](Cc2ccccc2)NC1=O (cyclo(ARA[dF]PVDL[dF]P)) | – | 33.7% |
| CC(C)C[C@@H]1NC(=O)[C@H](CCCNC(=N)N)NC(=O)[C@H](C(C)C)NC(=O)[C@@H]2CCCN2C(=O)[C@@H](Cc2ccccc2)NC(=O)[C@H](C)NC(=O)[C@H](C)NC(=O)[C@H](C(C)C)NC(=O)[C@@H]2CCCN2C(=O)[C@@H](Cc2ccccc2)NC1=O (cyclo(AA[dF]PVRL[dF]PV)) | – | 16.7% |
| CC[C@H](C)[C@@H]1NC(=O)[C@H](CC(=O)O)NC(=O)[C@H]([C@@H](C)O)NC(=O)[C@@H]2CCCN2C(=O)[C@@H](Cc2c[nH]c3ccccc23)NC(=O)[C@H](CC(C)C)NC(=O)[C@H](CCCNC(=N)N)NC(=O)[C@H]([C@@H](C)CC)NC(=O)[C@@H]2CCCN2C(=O)[C@@H](Cc2ccccc2)NC1=O | 5.37 µM | 80.4% |
| CC(C)C[C@@H]1NC(=O)[C@H](CC(=O)O)NC(=O)[C@H]([C@@H](C)O)NC(=O)[C@@H]2CCCN2C(=O)[C@@H](Cc2ccccc2)NC(=O)[C@H](CC(C)C)NC(=O)[C@H](CCCNC(=N)N)NC(=O)[C@H](C(C)C)NC(=O)[C@@H]2CCCN2C(=O)[C@@H](Cc2ccc(O)cc2)NC1=O (cyclo(DL[dY]PVRL[dF]PT)) | – | 18.7% |
| CC(C)C[C@@H]1NC(=O)[C@H](CCCNC(=N)N)NC(=O)[C@H](C(C)C)NC(=O)[C@@H]2CCCN2C(=O)[C@@H](Cc2ccccc2)NC(=O)[C@H](CC(C)C)NC(=O)[C@H](CC(=O)O)NC(=O)[C@H](CCC(=O)O)NC(=O)[C@@H]2CCCN2C(=O)[C@@H](Cc2ccccc2)NC1=O | – | 1.14% |
| CC(C)C[C@@H]1NC(=O)[C@H](CCCNC(=N)N)NC(=O)[C@H](C(C)C)NC(=O)[C@@H]2CCCN2C(=O)[C@@H](Cc2ccccc2)NC(=O)[C@H](C)NC(=O)[C@H](CC(=O)O)NC(=O)[C@H](C(C)C)NC(=O)[C@@H]2CCCN2C(=O)[C@@H](Cc2ccccc2)NC1=O (cyclo(A[dF]PVRL[dF]PVD)) | – | 21.7% |
| CC(C)C[C@@H]1NC(=O)[C@H](CC(=O)O)NC(=O)[C@H]([C@@H](C)O)NC(=O)[C@@H]2CCCN2C(=O)[C@@H](Cc2ccccc2)NC(=O)[C@H](CC(C)C)NC(=O)[C@H](CCCNC(=N)N)NC(=O)[C@H](C(C)C)NC(=O)[C@@H]2CCCN2C(=O)[C@@H](Cc2ccccc2)NC1=O | 6.35 µM | 72.4% |
| CC(C)C[C@@H]1NC(=O)[C@H](CCCNC(=N)N)NC(=O)[C@H](C(C)C)NC(=O)[C@@H]2CCCN2C(=O)[C@H](CC(=O)O)NC(=O)[C@@H](Cc2ccccc2)NC(=O)[C@H](CC(C)C)NC(=O)[C@H]([C@@H](C)O)NC(=O)[C@@H]2CCCN2C(=O)[C@@H](Cc2ccccc2)NC1=O (cyclo(DPVRL[dF]PTL[dF])) | – | -0.905% |
| CC(C)C[C@@H]1NC(=O)[C@H](CCCNC(=N)N)NC(=O)[C@H](C(C)C)NC(=O)[C@@H]2CCCN2C(=O)[C@@H](Cc2ccccc2)NC(=O)[C@H](CC(C)C)NC(=O)[C@H](CC(=O)O)NC(=O)[C@H](C)NC(=O)[C@@H]2CCCN2C(=O)[C@@H](Cc2ccccc2)NC1=O | 8.1 µM | 66.4% |
| CC(C)C[C@@H]1NC(=O)[C@H](CC(=O)O)NC(=O)[C@H](C(C)C)NC(=O)[C@@H]2CCCN2C(=O)[C@@H](Cc2c[nH]c3ccccc23)NC(=O)[C@H](CC(C)C)NC(=O)[C@H](CCCNC(=N)N)NC(=O)[C@H](C(C)C)NC(=O)[C@@H]2CCCN2C(=O)[C@@H](Cc2ccccc2)NC1=O | 7.42 µM | 66.8% |
